These results are taken from ChEMBL document CHEMBL3813646, “Small molecules that target phosphorylation dependent protein-protein interaction” (Bioorg Med Chem, 2016).

Residues, ends and D or L forms follow the SMILES beside them.

Test [1] addresses Serine/threonine-protein kinase Chk2 (Homo sapiens) (UniProt O96017). Description: Inhibition of Chk2 FHA (1 to 225 residues) (unknown origin) using 5-carboxyfluorescein-GHFDpTYLI-RR-OH as substrate at 40 uM incubated for 1 hr prior to addition of substrate by fluorescence polarization assay. In general terms: Polarisation of emitted light reports the rotation of a fluorescent probe.

Test [2] addresses Serine/threonine-protein kinase PLK3 (Homo sapiens, UniProt Q9H4B4). Description: Inhibition of human Plk3 PBD (335 to 646 residues) using 5-carboxyfluorescein-GPLATSpTPKNG-OH as substrate incubated for 1 hr prior to addition of substrate by fluorescence polarization assay.
For test [3], the target named is Serine/threonine-protein kinase PLK1 (Homo sapiens, UniProt P53350). Description: Inhibition of human Plk1 PBD (326 to 603 residues) using 5-carboxyfluorescein-GPMQSpTPLNG-OH as substrate incubated for 1 hr prior to addition of substrate by fluorescence polarization assay.
Test [4] has as its target Serine/threonine-protein kinase PLK2 (Homo sapiens, UniProt Q9NYY3). Description: Inhibition of human Plk2 PBD (355 to 685 residues) using 5-carboxyfluorescein-GPMQTSpTPKNG-OH as substrate incubated for 1 hr prior to addition of substrate by fluorescence polarization assay.
In test [5] the target is Peptidyl-prolyl cis-trans isomerase NIMA-interacting 1 (Homo sapiens) (UniProt Q13526). Description: Inhibition of Pin1 (1 to 162 residues) (unknown origin) using 5-carboxyfluorescein-GHFDpTYLI-RR-OH as substrate at 40 uM incubated for 1 hr prior to addition of substrate by fluorescence polarization assay.
A further test deals with T1, 14-3-3 protein sigma (Homo sapiens, UniProt P31947).
T1 sequence (P31947 whole entry): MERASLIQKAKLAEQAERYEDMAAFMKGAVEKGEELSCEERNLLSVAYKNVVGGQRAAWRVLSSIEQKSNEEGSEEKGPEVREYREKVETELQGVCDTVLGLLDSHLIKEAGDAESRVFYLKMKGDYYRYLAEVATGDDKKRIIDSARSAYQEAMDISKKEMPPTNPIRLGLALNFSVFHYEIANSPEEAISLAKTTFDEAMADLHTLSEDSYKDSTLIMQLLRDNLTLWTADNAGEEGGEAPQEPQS
Briefly: Inhibition of 14-3-3sigma (unknown origin) assessed as reduction in 14-3-3sigma- mediated increase in MMP1 mRNA by cell based assay.

The target of test [6] is T2, 14-3-3 protein beta/alpha (Homo sapiens, UniProt P31946).
T2 sequence (P31946 whole entry): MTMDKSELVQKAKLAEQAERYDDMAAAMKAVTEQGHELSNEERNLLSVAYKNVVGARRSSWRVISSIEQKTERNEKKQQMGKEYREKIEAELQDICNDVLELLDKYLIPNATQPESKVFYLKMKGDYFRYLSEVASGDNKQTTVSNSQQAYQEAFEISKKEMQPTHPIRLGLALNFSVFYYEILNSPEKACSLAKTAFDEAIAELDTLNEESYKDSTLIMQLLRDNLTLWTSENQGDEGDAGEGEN
Description: Binding affinity to GST-tagged 125I-labelled 14-3-3beta (unknown origin) expressed in Escherichia coli by solid phase assay.

In another test the target is T3, 14-3-3 protein theta (Homo sapiens, UniProt P27348).
T3 sequence (P27348 whole entry): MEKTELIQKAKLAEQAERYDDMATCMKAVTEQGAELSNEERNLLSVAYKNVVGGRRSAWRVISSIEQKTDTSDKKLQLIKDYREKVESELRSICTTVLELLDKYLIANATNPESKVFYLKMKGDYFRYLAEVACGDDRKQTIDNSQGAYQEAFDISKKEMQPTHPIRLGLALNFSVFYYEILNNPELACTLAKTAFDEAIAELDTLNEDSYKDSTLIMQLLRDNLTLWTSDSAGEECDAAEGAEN
Briefly: Binding affinity to GST-tagged 125I-labelled full length human 14-3-3tau expressed in Escherichia coli by solid phase assay.

The target in the next test is T4, 14-3-3 protein eta (Homo sapiens, UniProt Q04917).
T4 sequence (Q04917 whole entry): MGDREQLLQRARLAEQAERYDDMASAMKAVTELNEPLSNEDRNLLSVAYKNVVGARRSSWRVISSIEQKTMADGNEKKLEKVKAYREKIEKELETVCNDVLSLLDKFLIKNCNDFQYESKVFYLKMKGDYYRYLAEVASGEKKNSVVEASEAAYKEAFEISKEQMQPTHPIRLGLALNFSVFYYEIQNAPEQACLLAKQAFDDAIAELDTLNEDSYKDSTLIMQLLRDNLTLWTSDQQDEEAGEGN
Briefly: Binding affinity to GST-tagged 125I-labelled 14-3-3eta (unknown origin) expressed in Escherichia coli by solid phase assay.

The target in test [7] is T5, 14-3-3 protein sigma (Homo sapiens) (UniProt P31947).
T5 sequence (whole entry): T1 sequence (P31947 whole entry)
Briefly: Induction of human 14-3-3sigma binding to TASK-3 using FAM-370RRK-pS-V374-COOH by fluorescence polarization assay relative to control.

Serine/threonine-protein kinase PLK1, sequence (P53350 whole entry, the tested form may be a part): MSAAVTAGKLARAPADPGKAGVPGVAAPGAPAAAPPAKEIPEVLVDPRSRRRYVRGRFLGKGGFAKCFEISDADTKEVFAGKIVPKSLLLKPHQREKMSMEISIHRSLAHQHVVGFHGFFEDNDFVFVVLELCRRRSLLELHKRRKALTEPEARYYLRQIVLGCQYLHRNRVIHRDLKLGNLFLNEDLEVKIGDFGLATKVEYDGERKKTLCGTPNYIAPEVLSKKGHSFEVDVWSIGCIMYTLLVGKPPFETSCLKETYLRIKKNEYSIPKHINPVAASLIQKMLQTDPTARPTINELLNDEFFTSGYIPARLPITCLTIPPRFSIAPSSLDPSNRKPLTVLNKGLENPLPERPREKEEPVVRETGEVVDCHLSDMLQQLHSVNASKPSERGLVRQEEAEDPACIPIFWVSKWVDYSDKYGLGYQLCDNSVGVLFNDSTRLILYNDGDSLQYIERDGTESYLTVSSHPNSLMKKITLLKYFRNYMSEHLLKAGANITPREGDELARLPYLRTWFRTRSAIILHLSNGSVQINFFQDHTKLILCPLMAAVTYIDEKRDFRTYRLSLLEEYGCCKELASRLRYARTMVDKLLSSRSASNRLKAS
Peptidyl-prolyl cis-trans isomerase NIMA-interacting 1 (Homo sapiens), sequence (Q13526 whole entry, the tested form may be a part): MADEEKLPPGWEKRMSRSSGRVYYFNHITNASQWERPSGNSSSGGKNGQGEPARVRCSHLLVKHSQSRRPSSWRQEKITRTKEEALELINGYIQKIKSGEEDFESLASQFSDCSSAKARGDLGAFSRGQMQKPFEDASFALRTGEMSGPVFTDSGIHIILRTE
Serine/threonine-protein kinase PLK2, sequence (Q9NYY3 whole entry, the tested form may be a part): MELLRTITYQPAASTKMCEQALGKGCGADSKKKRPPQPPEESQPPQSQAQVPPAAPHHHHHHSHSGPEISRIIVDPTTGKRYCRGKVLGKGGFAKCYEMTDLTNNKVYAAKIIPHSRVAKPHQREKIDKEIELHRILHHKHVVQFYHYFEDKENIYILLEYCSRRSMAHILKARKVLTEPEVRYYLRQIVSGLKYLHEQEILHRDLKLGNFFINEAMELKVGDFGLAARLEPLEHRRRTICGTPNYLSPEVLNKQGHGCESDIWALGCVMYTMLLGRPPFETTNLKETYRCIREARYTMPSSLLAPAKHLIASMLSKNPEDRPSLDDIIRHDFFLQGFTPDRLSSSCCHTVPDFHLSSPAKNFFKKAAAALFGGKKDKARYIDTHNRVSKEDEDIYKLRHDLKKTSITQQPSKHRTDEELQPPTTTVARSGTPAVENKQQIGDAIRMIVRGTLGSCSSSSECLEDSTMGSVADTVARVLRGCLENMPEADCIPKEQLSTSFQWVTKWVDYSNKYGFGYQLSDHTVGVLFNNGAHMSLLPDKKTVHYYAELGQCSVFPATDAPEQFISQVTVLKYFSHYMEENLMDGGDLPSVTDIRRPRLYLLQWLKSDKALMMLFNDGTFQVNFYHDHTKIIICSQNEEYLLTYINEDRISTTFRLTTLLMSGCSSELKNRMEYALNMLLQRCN
Serine/threonine-protein kinase PLK3, sequence (Q9H4B4 whole entry, the tested form may be a part): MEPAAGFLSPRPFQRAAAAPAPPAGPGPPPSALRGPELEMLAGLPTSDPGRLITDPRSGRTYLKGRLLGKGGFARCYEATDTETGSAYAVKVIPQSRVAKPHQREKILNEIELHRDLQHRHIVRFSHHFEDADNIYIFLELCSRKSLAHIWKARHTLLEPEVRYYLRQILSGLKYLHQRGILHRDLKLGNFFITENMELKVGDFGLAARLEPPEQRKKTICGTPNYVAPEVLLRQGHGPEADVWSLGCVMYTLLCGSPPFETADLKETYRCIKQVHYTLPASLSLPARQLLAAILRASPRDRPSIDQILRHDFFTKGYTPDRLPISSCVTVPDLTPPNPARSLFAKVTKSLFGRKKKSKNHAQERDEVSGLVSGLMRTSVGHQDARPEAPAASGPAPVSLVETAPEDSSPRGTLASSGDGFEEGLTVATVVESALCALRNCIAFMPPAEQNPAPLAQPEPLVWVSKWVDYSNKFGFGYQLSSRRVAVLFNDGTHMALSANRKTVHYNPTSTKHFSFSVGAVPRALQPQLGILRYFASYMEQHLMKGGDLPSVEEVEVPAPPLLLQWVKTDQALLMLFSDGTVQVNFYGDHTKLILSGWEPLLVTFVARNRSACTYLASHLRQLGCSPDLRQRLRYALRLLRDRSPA
Serine/threonine-protein kinase Chk2 (Homo sapiens), sequence (O96017 whole entry, the tested form may be a part): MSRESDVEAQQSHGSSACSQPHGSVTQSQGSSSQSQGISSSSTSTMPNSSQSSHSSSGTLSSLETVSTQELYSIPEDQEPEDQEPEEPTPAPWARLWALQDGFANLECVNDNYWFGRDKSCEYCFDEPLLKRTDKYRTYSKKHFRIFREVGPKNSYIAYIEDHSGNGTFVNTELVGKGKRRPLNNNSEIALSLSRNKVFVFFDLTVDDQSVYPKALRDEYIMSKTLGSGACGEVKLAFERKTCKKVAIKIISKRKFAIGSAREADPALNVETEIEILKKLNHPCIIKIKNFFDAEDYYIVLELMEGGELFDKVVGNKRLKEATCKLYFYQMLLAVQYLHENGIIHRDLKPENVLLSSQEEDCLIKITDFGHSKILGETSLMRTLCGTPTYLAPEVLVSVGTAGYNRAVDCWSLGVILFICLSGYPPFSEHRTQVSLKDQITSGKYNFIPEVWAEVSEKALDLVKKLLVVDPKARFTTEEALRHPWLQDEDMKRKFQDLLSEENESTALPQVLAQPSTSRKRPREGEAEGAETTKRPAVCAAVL

As to `COc1ccc(Br)cc1/C=c1\sc2nc(=O)c(C)nn2c1=O`, the inhibition in test [1] worked out at 35%; in test [5], 32%. The results for the half-inhibitory concentration (IC50) in [2], in [3] and in test [4] were 3 µM, 3.2 µM and 1.7 µM, respectively.
Turning to `O=C(COc1ccccc1P(=O)(O)O)Nc1cccc(Cl)c1Cl`, at 14-3-3 protein sigma, the IC50 was 5 µM.
Regarding `CSCC[C@H](NC(=O)[C@H](CC(N)=O)NC(=O)[C@H](C)NC(=O)[C@H](CCC(=O)O)NC(=O)[C@H](CC(C)C)NC(=O)[C@H](CC(=O)O)NC(=O)[C@H](CC(C)C)NC(=O)[C@H](Cc1c[nH]c2ccccc12)NC(=O)[C@H](CO)NC(=O)[C@H](CC(C)C)NC(=O)[C@H](CC(=O)O)NC(=O)[C@H](CCCNC(=N)N)NC(=O)[C@@H]1CCCN1C(=O)[C@@H](NC(=O)[C@H](CS)NC(=O)[C@H](Cc1cnc[nH]1)NC(=O)[C@@H]1CCCN1)C(C)C)C(=O)N[C@@H](CS)C(=O)N[C@@H](CC(C)C)C(=O)N1CCC[C@H]1C(=O)O` (H-PHCVPRDLSWLDLEANMCLP-OH), the Kd (in test [6]; at 14-3-3 protein theta; on 14-3-3 protein eta) was 0.07 µM in each case.
Take `COC[C@H]1CC[C@@H]2/C1=C\[C@]1(C)C(=C(C(C)C)[C@@H]3CCO[C@@H]31)[C@@H](O[C@H]1O[C@@H]3COC(C)(C)O[C@H]3[C@H](O)[C@H]1O)[C@H](O)[C@@H]2C`: in [7], the fold change (FC) was 19.

What is called inhibition is the relative decrease from the control value, in per cent. A low value points to a response near the control. By IC50 is commonly meant the concentration that inhibits the measured activity by half. By Kd is commonly meant the equilibrium constant for the complex coming apart. A low value points to tighter binding.
